Results: PubChem BioAssay (NCI)
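Five concentrations, 48 hours, 96-well plates. GI50: concentration for 50% inhibition of growth. TGI: concentration producing complete growth inhibition.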

Legend:
Assay in all cases: inhibition of tumour cell growth, NCI panel, 48 h
[1] = test system: ACHN renal
[2] = test system: RXF 393 renal
[3] = test system: TK-10 renal
[4] = test system: M14 melanoma
[5] = test system: SNB-19 CNS
[6] = test system: CCRF-CEM leukemia
[7] = test system: HL-60(TB) leukemia
[8] = test system: MOLT-4 leukemia
[9] = test system: SK-MEL-5 melanoma
[10] = test system: PC-3 prostate

SMILES | GI50 [1] | TGI [1] | GI50 [2] | TGI [2] | GI50 [3] | TGI [3] | GI50 [4] | TGI [4] | GI50 [5] | TGI [5] | GI50 [6] | TGI [6] | GI50 [7] | TGI [7] | GI50 [8] | TGI [8] | GI50 [9] | TGI [9] | GI50 [10] | TGI [10]
Cn1c(=O)c(-c2ccccc2Cl)cc2cnc(NC3CCOCC3)nc21 | 4.64 µM | > 25 µM | 5.19 µM | > 23.9 µM | 6.19 µM | > 22.9 µM | 5.66 µM | > 25 µM | > 25 µM | > 25 µM | 14.8 µM | > 25 µM | 10.5 µM | > 25 µM | 10.2 µM | > 25 µM | 11 µM | > 25 µM | 21.4 µM | > 25 µM
CCN(CC)c1ccc(/C=N/NC(=O)Cc2ccc(Nc3ccnc(C(F)(F)F)c3)cc2)c(O)c1 | 0.399 µM | > 26.9 µM | 1.03 µM | 98.5 µM | 0.461 µM | > 100 µM | 0.637 µM | 5.93 µM | 0.588 µM | > 26.6 µM | 0.256 µM | > 100 µM | 0.301 µM | 1.62 µM | 0.37 µM | > 100 µM | 0.49 µM | 3.86 µM | 1.85 µM | > 100 µM
O=c1c(I)c[nH]cc1I | > 100 µM | > 100 µM | > 100 µM | > 100 µM | > 100 µM | > 100 µM | > 100 µM | > 100 µM | > 100 µM | > 100 µM | > 100 µM | > 100 µM | > 100 µM | > 100 µM | > 100 µM | > 100 µM | > 100 µM | > 100 µM | > 100 µM | > 100 µM
Nc1ccc(CC[C@H]2CCC/C=C/[C@@H]3C[C@H](O)C[C@H]3[C@H](O)/C=C/C(=O)O2)cc1 | 0.0413 µM | > 100 µM | 0.0215 µM | 0.0621 µM | 0.0382 µM | 0.831 µM | 0.0337 µM | 10.7 µM | 0.0504 µM | > 100 µM | 0.0437 µM | > 64.9 µM | 0.0535 µM | 1.55 µM | 0.029 µM | 0.0847 µM | < 0.013 µM | 0.0236 µM | 0.0494 µM | > 100 µM
C=C1C(=O)OC2CC(C)C(/C=C/C(C)=O)=CCC12 (stereo not drawn) | – | > 100 µM | – | > 100 µM | – | > 100 µM | – | > 100 µM | – | > 100 µM | – | > 100 µM | – | > 100 µM | – | > 100 µM | – | > 100 µM | – | > 100 µM
O=C1/C(=C/c2ccc(Cl)cc2)CCC1CNc1ccc(Cl)cc1 (stereo not drawn) | – | 26.9 µM | – | 26.4 µM | – | 21.8 µM | – | 22.8 µM | – | 35.7 µM | – | 15.5 µM | – | 22.1 µM | – | 27.5 µM | – | 22 µM | – | 45.6 µM
[Br][Pb]([c]1ccccc1)([c]1ccccc1)[c]1ccccc1 | 0.175 µM | 0.328 µM | 0.0916 µM | 0.231 µM | 0.175 µM | 0.36 µM | 0.195 µM | 0.409 µM | 0.221 µM | 0.527 µM | 0.202 µM | > 100 µM | 0.19 µM | 0.498 µM | 0.22 µM | – | 0.164 µM | 0.312 µM | 0.225 µM | 0.515 µM
Cc1cccc2c(=O)c3c(O)cc(O)cc3n(C)c12 | – | > 100 µM | – | > 100 µM | – | > 100 µM | – | > 100 µM | – | > 100 µM | – | > 100 µM | – | > 100 µM | – | > 100 µM | – | > 100 µM | – | > 100 µM
CCOc1ccc2nc(NC(=O)C(=O)C3C(=O)C(CC4C(=O)c5ccccc5C4=O)C(=O)CC3(C)C)sc2c1 (stereo not drawn) | – | > 100 µM | – | > 100 µM | – | > 100 µM | – | > 100 µM | – | > 100 µM | – | 70.1 µM | – | 64.2 µM | – | 90.4 µM | – | > 100 µM | – | > 100 µM
Cc1nc2c(C)ccc([N+](=O)[O-])c2c(NCCCN(C)C)c1C | – | > 100 µM | – | > 100 µM | – | > 55.7 µM | – | 37.6 µM | – | > 100 µM | – | > 100 µM | – | > 68.3 µM | – | > 100 µM | – | 27.2 µM | – | > 47.9 µM
CCCCCCCCCCCCCCCCCc1nc(Cl)nc(Cl)c1Cl | – | > 100 µM | – | > 100 µM | – | > 100 µM | – | > 100 µM | – | > 100 µM | – | > 100 µM | – | > 100 µM | – | > 100 µM | – | 50.7 µM | – | > 100 µM
O=[N+]([O-])c1ccccc1N=Nc1c(O)[nH]c2c(Cl)cccc12 | – | > 45.8 µM | – | 98.1 µM | – | > 54.9 µM | – | > 100 µM | – | > 79.3 µM | – | > 100 µM | – | > 100 µM | – | > 100 µM | – | > 46.5 µM | – | > 100 µM
O=S(=O)(c1ccccc1)N1CCCC(c2ccccc2)CC1 (stereo not drawn) | – | > 100 µM | – | > 100 µM | – | > 100 µM | – | > 100 µM | – | > 100 µM | – | > 100 µM | – | 29.9 µM | – | 69.1 µM | – | 28.9 µM | – | > 100 µM
CC1(C)N=C(N)N=C(N)N1c1ccc(CCCC(=O)Nc2ccc(S(=O)(=O)F)cc2)cc1 | 58.7 µM | > 100 µM | 4.22 µM | > 100 µM | 7.63 µM | > 100 µM | 5.44 µM | > 100 µM | 36.5 µM | > 100 µM | 4.13 µM | > 100 µM | 3.47 µM | > 100 µM | 14.2 µM | > 100 µM | 3.2 µM | 28.1 µM | 0.469 µM | > 100 µM
COc1ccc2nc3ccccc3c(NCCNCCO)c2c1 | 0.478 µM | 21.1 µM | 0.763 µM | 2.34 µM | 0.716 µM | 9.96 µM | 0.709 µM | 2.24 µM | 0.661 µM | 6.9 µM | 0.597 µM | 6.78 µM | 0.572 µM | 1.68 µM | 0.393 µM | 3.77 µM | 1.05 µM | 2.35 µM | 0.554 µM | 3.79 µM
N=C(N)c1ccc2oc3ccc(C(=N)N)cc3c(=O)c2c1 | – | > 100 µM | – | > 100 µM | – | > 100 µM | – | > 100 µM | – | > 100 µM | – | > 100 µM | – | > 100 µM | – | > 100 µM | – | > 100 µM | – | > 100 µM
CC(C)(C)N/N=C(/Cc1nc2c3c(ccc2[nH]c1=O)C(=O)c1ccccc1C3=O)C(=O)NC1=C(Cl)C(=O)c2ccccc2C1=O | – | > 100 µM | – | > 100 µM | – | – | – | > 100 µM | – | > 100 µM | – | > 100 µM | – | > 100 µM | – | > 100 µM | – | 27 µM | – | > 100 µM
